Entries after “also recorded” stand apart in the source; their conditions may differ. Where no end group is shown, it is not given here.
How the values were obtained:
[1] = test system: TNBS-induced model of acute inflammatory bowel disease (UC) in SD rat; assay: TNBS-induced model of acute inflammatory bowel disease (UC) in SD rat; type: in vivo; conditions: for Body weight, Grouping day (D 0, g): D 0, before treatment; for Body weight, Grouping day (D 0, g) / DAI score, Experimental day 1 (D 1, point) / DAI score, Experimental day 3 (D 3, point) / Body weight, Experimental day 5 (D 5, g): enema once a day; for Body weight, Grouping day (D 0, g) / DAI score AUC(0-14 d) (D 0-D 14) / Weight change range (D 0-D 14, %) / DAI score, Experimental day 1 (D 1, point) / DAI score, Experimental day 3 (D 3, point) / Body weight, Experimental day 5 (D 5, g) / Body weight, Experimental endpoint (D 14, g) / DAI score, Experimental endpoint (D 14, point) / Colon length (cm) / Colon ulcer and inflammation score (point) / Colon ulcer area (cm^2) / Colon weight / Colon weight/length ratio (100* g/cm) / Colonic adhesion score (point): mean ± SD; for DAI score AUC(0-14 d) (D 0-D 14) / Weight change range (D 0-D 14, %) / Body weight, Experimental endpoint (D 14, g) / DAI score, Experimental endpoint (D 14, point) / Colon length (cm) / Colon ulcer and inflammation score (point) / Colon ulcer area (cm^2) / Colon weight / Colon weight/length ratio (100* g/cm) / Colonic adhesion score (point) / Effect on disease progression of ulcerative colitis / DAI scores (in words) / Effect on weight gain inhibition / weight loss response of model animals (in words): enema once a day 14 days; for Colon length (cm) / Colon ulcer and inflammation score (point) / Colon ulcer area (cm^2) / Colon weight / Colon weight/length ratio (100* g/cm) / Colonic adhesion score (point) / Effect on colon atrophy process / colon weight/length ratio (in words) / Effect on gross colon injury status (colonic adhesion, ulcer and inflammation) and colon ulcer area (in words): experimental endpoint; for Overall therapeutic effect in the rat model of ulcerative colitis (in words) / Effect on disease progression of ulcerative colitis / DAI scores (in words) / Effect on weight gain inhibition / weight loss response of model animals (in words) / Effect on colon atrophy process / colon weight/length ratio (in words) / Effect on gross colon injury status (colonic adhesion, ulcer and inflammation) and colon ulcer area (in words): set treatment regimen; for Effect on disease progression of ulcerative colitis / DAI scores (in words) / Effect on weight gain inhibition / weight loss response of model animals (in words) / Effect on colon atrophy process / colon weight/length ratio (in words) / Effect on gross colon injury status (colonic adhesion, ulcer and inflammation) and colon ulcer area (in words): vs model control group
Description: In this experiment, a rat model of ulcerative colitis was established by administering trinitrobenzene sulfonic acid (TNBS) to laboratory animal male SD rats for a single enema intervention. Acute colitis in rats induced by trinitrobenzene sulfonic acid (TNBS) is an immune response induced by cytokines secreted by Th1 type cells. […] This model is simple to establish and has good reproducibility. It is an experimental animal model widely used in evaluating drugs for the treatment of inflammatory bowel disease. […] During the experimental treatment period (D1-D14), the body weight and general clinical observation indicators (including but not limited to food intake, water intake, activity level and defecation, etc.) of the animals in each experimental group were dynamically collected. At the same time, based on the relevant scoring standards for the disease activity index of ulcerative colitis, the reactivity such as the weight loss degree, stool morphology and trait, and bloody stool of the animals in each experimental group after TNBS induction were scored, and the disease activity index (DAI) of ulcerative colitis was calculated, once a day for 14 consecutive days. At the end point of the experiment, colon tissues of animals in each experimental group were collected, and the length and weight of the colon were measured and then the non-autopsy images were collected. Then the colon was cut open along the intestinal wall longitudinally and autopsy images were collected. Based on the “Criteria for Scoring Gross Morphological Manifestations of the Colon”, the gross damage with respect to colon adhesions, colon ulcers and inflammation of animals in each experimental group was observed and scored. Ulcer images were collected under a stereomicroscope and the area of colon ulcer foci was calculated, followed by routine fixation.

[2] = test system: zebrafish model of intestinal mucosal injury; assay: Efficacy in relieving colitis: intestinal lumen area in TNBS-treated zebrafish; type: in vivo; conditions: for Intestinal lumen area (pixels, mean ± SE): 2 days after TNBS, n = 10; for Activity in relieving intestinal lumen dilatation: 1000 μg/mL, significance vs model control group of the same batch; for Intestinal lumen area compared with the model control group (in words): 250, 500, 1000 μg/mL, Table 4
Outline: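 TNBS in water for 2 days at 28 °C in 3 dpf wild-type AB zebrafish, then test polypeptide in water for 2 days at 28 °C at 250, 500 or 1000 μg/mL; later rounds used 1000 μg/mL. Prednisone control at 15.0 μg/mL. Intestinal lumen area imaged in 10 fish/group, mean±SE.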

[3] = compound 12: 0.8 mg/kg, mesalazine: 30.0 mg/kg
[4] = high dose group (compound 1: 6.0 mg/kg; compound 6: 2.8 mg/kg)
[5] = low dose group (compound 1: 3.0 mg/kg; compound 6: 1.4 mg/kg)

## Pro-Val-Pro-Gln (PVPQ; printed: Pro-Val-Pro-Gln) [Compound 12]
[1]; [3]
  Body weight, Grouping day (D 0, g): 276.36 ± 7.47 g
  DAI score AUC(0-14 d) (D 0-D 14): 46.40 ± 3.68
  Weight change range (D 0-D 14, %): −1.52 ± 12.20%
  DAI score, Experimental day 1 (D 1, point): 4.1 ± 0.6 point
  DAI score, Experimental day 3 (D 3, point): 4.9 ± 1.0 point
  Body weight, Experimental day 5 (D 5, g): 244.90 ± 21.75 g
  Body weight, Experimental endpoint (D 14, g): 272.00 ± 33.21 g
  DAI score, Experimental endpoint (D 14, point): 1.4 ± 1.8 point
  Colon length (cm): 13.74 ± 1.97 cm
  Colon ulcer and inflammation score (point): 2.30 ± 0.82 point
  Colon ulcer area (cm^2): 3.79 ± 1.63^# cm^2
  Colon weight: 2.10 ± 0.19 g
  Colon weight/length ratio (100* g/cm): 15.68 ± 3.14# 100* g/cm
  Colonic adhesion score (point): 1.20 ± 0.63 point
[1]
  Overall therapeutic effect in the rat model of ulcerative colitis (in words): significant therapeutic effects
  Effect on disease progression of ulcerative colitis / DAI scores (in words): significant improvement effect on the disease progression of ulcerative colitis
  Effect on weight gain inhibition / weight loss response of model animals (in words): no obvious improved therapeutic effect; also recorded: did not show a significant weight improvement effect
  Effect on colon atrophy process / colon weight/length ratio (in words): colon weight/length ratio was significantly decreased
  Effect on gross colon injury status (colonic adhesion, ulcer and inflammation) and colon ulcer area (in words): obvious therapeutic effects; also recorded: significant therapeutic effects on the gross damage manifestation of the colon
[2]; 250 μg/mL in water
  Intestinal lumen area (pixels, mean ± SE): 48857 ± 5649 pixels
[2]; 500 μg/mL in water
  Intestinal lumen area (pixels, mean ± SE): 43802 ± 3228 pixels
[2]; 1000 μg/mL in water
  Intestinal lumen area (pixels, mean ± SE): 26727 ± 2106 pixels
[2]
  Activity in relieving intestinal lumen dilatation: ** (** p < 0.01)
  Intestinal lumen area compared with the model control group (in words): significant statistical differences compared with the model control group

## EPVPQAK [Compound 6]
[1]; [4]
  Body weight, Grouping day (D 0, g): 275.55 ± 7.92 g
  DAI score AUC(0-14 d) (D 0-D 14): 39.55 ± 3.99^####++++
  Weight change range (D 0-D 14, %): 1.50 ± 10.78%
  DAI score, Experimental day 1 (D 1, point): 4.2 ± 0.8 point
  DAI score, Experimental day 3 (D 3, point): 4.8 ± 1.0 point
  Body weight, Experimental day 5 (D 5, g): 246.74 ± 22.76 g
  Body weight, Experimental endpoint (D 14, g): 279.67 ± 30.93 g
  DAI score, Experimental endpoint (D 14, point): 0.7 ± 1.2 point
  Colon length (cm): 13.89 ± 1.60 cm
  Colon ulcer and inflammation score (point): 2.50 ± 1.43 point
  Colon ulcer area (cm^2): 3.66 ± 2.36^# cm^2
  Colon weight: 2.41 ± 0.63 g
  Colon weight/length ratio (100* g/cm): 17.70 ± 5.71# 100* g/cm
  Colonic adhesion score (point): 1.30 ± 0.82 point
[1]; [5]
  Body weight, Grouping day (D 0, g): 276.61 ± 9.81 g
  DAI score AUC(0-14 d) (D 0-D 14): 49.65 ± 3.95
  Weight change range (D 0-D 14, %): 0.48 ± 9.87%
  DAI score, Experimental day 1 (D 1, point): 3.9 ± 0.9 point
  DAI score, Experimental day 3 (D 3, point): 5.0 ± 1.7 point
  Body weight, Experimental day 5 (D 5, g): 243.72 ± 22.18 g
  Body weight, Experimental endpoint (D 14, g): 277.96 ± 29.18 g
  DAI score, Experimental endpoint (D 14, point): 1.3 ± 1.2 point
  Colon length (cm): 13.37 ± 1.40 cm
  Colon ulcer and inflammation score (point): 3.00 ± 0.94 point
  Colon ulcer area (cm^2): 3.46 ± 2.06^## cm^2
  Colon weight: 2.23 ± 0.39 g
  Colon weight/length ratio (100* g/cm): 16.93 ± 3.87^## 100* g/cm
  Colonic adhesion score (point): 1.70 ± 0.67 point
[1]
  Overall therapeutic effect in the rat model of ulcerative colitis (in words): significant therapeutic effects
  Effect on disease progression of ulcerative colitis / DAI scores (in words): significant improvement effect on the disease progression of ulcerative colitis
  Effect on weight gain inhibition / weight loss response of model animals (in words): no obvious improved therapeutic effect; also recorded: did not show a significant weight improvement effect
  Effect on colon atrophy process / colon weight/length ratio (in words): colon weight/length ratio was significantly decreased
  Effect on gross colon injury status (colonic adhesion, ulcer and inflammation) and colon ulcer area (in words): obvious therapeutic effects; also recorded: significant therapeutic effects on the gross damage manifestation of the colon
[2]; 250 μg/mL in water
  Intestinal lumen area (pixels, mean ± SE): 53093 ± 3839 pixels
[2]; 500 μg/mL in water
  Intestinal lumen area (pixels, mean ± SE): 45831 ± 3894 pixels
[2]; 1000 μg/mL in water
  Intestinal lumen area (pixels, mean ± SE): 28429 ± 3711 pixels
[2]
  Activity in relieving intestinal lumen dilatation: ** (** p < 0.01)
  Intestinal lumen area compared with the model control group (in words): significant statistical differences compared with the model control group

From patent US20250101063A1, “POLYPEPTIDE COMPOUND AND USE THEREOF IN TREATMENT OF ENTERITIS” (Sichuan Gooddoctor Panxi Pharmaceutical Co., Ltd., priority 2022, published 2025)
